Measured values taken from US11051515B2, “3-acyl-benzamides and their use as herbicides” (Bayer Aktiengesellschaft, priority 2017, dated 2021).

How the values were obtained:
ECHCG [1] = experiment: Pre-emergence action against ECHCG; type: in vivo, Echinochloa crus-galli; details: pre-emergence, dosage 320 g/ha, scored visually after 3 weeks vs untreated controls; for pest or weed control at 320 g/ha: Echinochloa crus-galli, 504 h, read-out: Pre-emergence action against ECHCG (herbicidal activity)
Summary of the method: (§1)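 Seeds sown in sandy loam in wood-fiber pots and covered with soil. Greenhouse growth; visual damage scored after 3 weeks versus untreated controls (100% = dead, 0% = like control).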

ABUTH [2] = experiment: Pre-emergence action against ABUTH; type: in vivo, Abutilon theophrasti; details: pre-emergence, dosage 320 g/ha, scored visually after 3 weeks vs untreated controls; for pest or weed control at 320 g/ha: Abutilon theophrasti, 504 h, read-out: Pre-emergence action against ABUTH (herbicidal activity)
Summary of the method: as §1

AMARE [3] = experiment: Pre-emergence action against AMARE; type: in vivo, Amaranthus retroflexus; details: pre-emergence, dosage 320 g/ha, scored visually after 3 weeks vs untreated controls; for pest or weed control at 320 g/ha: Amaranthus retroflexus, 504 h, read-out: Pre-emergence action against AMARE (herbicidal activity)
Summary of the method: as §1

MATIN [4] = experiment: Pre-emergence action against MATIN; type: in vivo, Matricaria inodora; details: Dosage 320 g/ha, pre-emergence; for pest or weed control at 320 g/ha: Tripleurospermum inodorum, 504 h
Summary of the method: as §1

STEME [5] = experiment: Pre-emergence action against STEME; type: in vivo, Stellaria media; details: Dosage 320 g/ha, pre-emergence; for pest or weed control at 320 g/ha: Stellaria media, 504 h
Summary of the method: as §1

VERPE [6] = experiment: Pre-emergence action against VERPE; type: in vivo, Veronica persica; details: Dosage 320 g/ha, pre-emergence; for pest or weed control at 320 g/ha: Veronica persica, 504 h
Summary of the method: as §1

CYPES [7] = experiment: Post-emergence action against CYPES; type: in vivo, Cyperus esculentus; details: post-emergence, dosage 80 g/ha, visual assessment about 3 weeks after treatment vs untreated controls; for pest or weed control at 80 g/ha: Cyperus esculentus, 504 h, read-out: Post-emergence action against CYPES (herbicidal action in percent)
Procedure: (§2) Seeds of monocotyledonous and dicotyledonous weed and crop plants are laid out in sandy loam soil in wood-fiber pots, covered with soil and cultivated in a greenhouse under good growth conditions. 2 to 3 weeks after sowing, the test plants are treated at the one-leaf stage. The compounds of the invention, formulated in the form of wettable powders (WP) or as emulsion concentrates (EC), are then sprayed onto the green parts of the plants in the form of an aqueous suspension or emulsion at a water application rate equating to […], with addition of 0.2% wetting agent. After the test plants have been left to stand in the greenhouse under optimal growth conditions for about 3 weeks, the action of the preparations is assessed visually in comparison to untreated controls (herbicidal action in percent (%): 100% activity=the plants have died, 0% activity=like control plants). […] At the same time, inventive compounds leave Gramineae crops such as barley, wheat, rye, millet/Sorghum, corn or rice virtually undamaged when applied post-emergence, even at high active ingredient dosages. In addition, some substances are also harmless to dicotyledonous crops such as soya, cotton, oilseed rape, sugar beet or potatoes. Some of the compounds according to the invention have high selectivity and are therefore suitable for controlling unwanted vegetation in agricultural crops by the post-emergence method. The data of Tables B18 to B34 below illustrate, in an exemplary manner, the […] herbicidal action of the compounds according to the invention, the herbicidal activity being stated in percent.

ECHCG [8] = experiment: Post-emergence action against ECHCG; type: in vivo, Echinochloa crus-galli; details: post-emergence, dosage 80 g/ha, visual assessment about 3 weeks after treatment vs untreated controls; for pest or weed control at 80 g/ha: Echinochloa crus-galli, 504 h, read-out: Post-emergence action against ECHCG (herbicidal action in percent)
Summary of the method: (§3)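 Weeds grown in sandy loam in greenhouse, treated at one-leaf stage (2–3 weeks after sowing) with WP or EC formulations sprayed as aqueous suspension/emulsion at 600 to […] water with 0.2% wetting agent. Visual rating after about 3 weeks versus untreated controls, as % herbicidal action (100% = plants dead, 0% = like control).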

SETVI [9] = experiment: Post-emergence action against SETVI; type: in vivo, Setaria viridis; details: post-emergence, dosage 80 g/ha, visual assessment about 3 weeks after treatment vs untreated controls; for pest or weed control at 80 g/ha: Setaria viridis, 504 h, read-out: Post-emergence action against SETVI (herbicidal action in percent)
Procedure: as §2

ABUTH [10] = experiment: Post-emergence action against ABUTH; type: in vivo, Abutilon theophrasti; details: post-emergence, dosage 80 g/ha, visual assessment about 3 weeks after treatment vs untreated controls; for pest or weed control at 80 g/ha: Abutilon theophrasti, 504 h, read-out: Post-emergence action against ABUTH (herbicidal action in percent)
Summary of the method: as §3

AMARE [11] = experiment: Post-emergence action against AMARE; type: in vivo, Amaranthus retroflexus; details: post-emergence, dosage 80 g/ha, visual assessment about 3 weeks after treatment vs untreated controls; for pest or weed control at 80 g/ha: Amaranthus retroflexus, 504 h, read-out: Post-emergence action against AMARE (herbicidal action in percent)
Summary of the method: as §3

MATIN [12] = experiment: Post-emergence action against MATIN; type: in vivo, Matricaria inodora; details: post-emergence, dosage 80 g/ha, visual assessment about 3 weeks after treatment vs untreated controls; for pest or weed control at 80 g/ha: Tripleurospermum inodorum, 504 h, read-out: Post-emergence action against MATIN (herbicidal action in percent)
Summary of the method: as §3

PHBPU [13] = experiment: Post-emergence action against PHBPU; type: in vivo, Pharbitis purpurea; details: post-emergence, dosage 80 g/ha; for pest or weed control at 80 g/ha: Ipomoea purpurea, 504 h
Summary of the method: as §3

STEME [14] = experiment: Post-emergence action against STEME; type: in vivo, Stellaria media; details: post-emergence, dosage 80 g/ha; for pest or weed control at 80 g/ha: Stellaria media, 504 h
Summary of the method: as §3

VIOTR [15] = experiment: Post-emergence action against VIOTR; type: in vivo, Viola tricolor; details: post-emergence, dosage 80 g/ha; for pest or weed control at 80 g/ha: Viola tricolor, 504 h
Summary of the method: as §3

VERPE [16] = experiment: Post-emergence action against VERPE; type: in vivo, Veronica persica; details: dosage 80 g/ha; for pest or weed control at 80 g/ha: Veronica persica, 504 h
Summary of the method: as §3

ALOMY = experiment: Pre-emergence action against ALOMY; type: in vivo, Alopecurus myosuroides; details: dosage 320 g/ha, pre-emergence, scored visually after 3 weeks vs untreated controls, 100% = plants have died, 0% = like control plants
Summary of the method: as §1

CYPES [17] = experiment: Pre-emergence action against CYPES; type: in vivo, Cyperus esculentus; details: pre-emergence, dosage 320 g/ha, scored visually after 3 weeks vs untreated controls
Excerpt: (§4) Seeds of monocotyledonous and dicotyledonous weed plants and crop plants are laid out in sandy loam soil in wood-fiber pots and covered with soil. The compounds of the invention, formulated in the form of wettable powders (WP) or as emulsion concentrates (EC), are then applied to the surface of the covering soil in the form of an aqueous suspension or emulsion at a water application rate equating to […], with addition of 0.2% wetting agent. After the treatment, the pots are placed in a greenhouse and kept under good growth conditions for the trial plants. The damage to the test plants is scored visually after a test period of 3 weeks by comparison with untreated controls (herbicidal activity in percent (%): 100% activity=the plants have died, 0% activity=like control plants).

SETVI [18] = experiment: Pre-emergence action against SETVI; type: in vivo, Setaria viridis; details: pre-emergence, dosage 320 g/ha, scored visually after 3 weeks vs untreated controls
Summary of the method: as §1

VIOTR [19] = experiment: Pre-emergence action against VIOTR; type: in vivo, Viola tricolor; details: Dosage 320 g/ha, pre-emergence
Summary of the method: as §1

PHBPU [20] = experiment: Pre-emergence action against PHBPU; type: in vivo, Pharbitis purpurea; details: Dosage 320 g/ha, pre-emergence
Excerpt: as §4

SMILES | pest or weed control at 320 g/ha (ECHCG [1]) [%] | pest or weed control at 320 g/ha (ABUTH [2]) [%] | pest or weed control at 320 g/ha (AMARE [3]) [%] | pest or weed control at 320 g/ha (MATIN [4]) [%] | pest or weed control at 320 g/ha (STEME [5]) [%] | pest or weed control at 320 g/ha (VERPE [6]) [%] | pest or weed control at 80 g/ha (CYPES [7]) [%] | pest or weed control at 80 g/ha (ECHCG [8]) [%] | pest or weed control at 80 g/ha (SETVI [9]) [%] | pest or weed control at 80 g/ha (ABUTH [10]) [%] | pest or weed control at 80 g/ha (AMARE [11]) [%] | pest or weed control at 80 g/ha (MATIN [12]) [%] | pest or weed control at 80 g/ha (PHBPU [13]) [%] | pest or weed control at 80 g/ha (STEME [14]) [%] | pest or weed control at 80 g/ha (VIOTR [15]) [%] | pest or weed control at 80 g/ha (VERPE [16]) [%] | Pre-emergence action against ECHCG (herbicidal activity) (ECHCG [1]) [%] | Pre-emergence action against ABUTH (herbicidal activity) (ABUTH [2]) [%] | Pre-emergence action against AMARE (herbicidal activity) (AMARE [3]) [%] | Pre-emergence action against MATIN (MATIN [4]) [%] | also measured
CC(=O)c1c(C)ccc(C(=O)Nc2nnnn2C)c1Cl [1-134] | 90 | 90 | 100 | 100 | 90 | 90 | 90 | 90 | 80 | 80 | 90 | 100 | 90 | 100 | 100 | 100 | – | – | – | – | –
Cc1ccc(C(=O)Nc2nnnn2C)c(Cl)c1C(=O)C1CC1 [1-136] | – | – | 80 | 100 | 100 | 80 | 80 | – | – | – | 90 | 90 | 90 | 100 | 90 | 90 | – | – | – | – | –
CC(C)C(=O)c1c(Cl)ccc(C(=O)Nc2nnnn2C)c1Cl [1-280] | 100 | 90 | 100 | 100 | 90 | 90 | 90 | 90 | 80 | 80 | 90 | 90 | 80 | 100 | 90 | 90 | – | – | – | – | pest or weed control at 320 g/ha (ALOMY; Alopecurus myosuroides, 504 h, read-out: Pre-emergence action against ALOMY (herbicidal activity in percent)): 90%; pest or weed control at 320 g/ha (CYPES [17]; Cyperus esculentus, 504 h, read-out: Pre-emergence action against CYPES (herbicidal activity)): 100%; pest or weed control at 320 g/ha (SETVI [18]; Setaria viridis, 504 h, read-out: SETVI (Table B8, pre-emergence herbicidal activity)): 90%; pest or weed control at 320 g/ha (VIOTR [19]; Viola tricolor, 504 h): 100%
CCCn1nnnc1NC(=O)c1ccc(C(F)(F)F)c(C(C)=O)c1C [3-14] | – | – | – | – | – | – | – | – | – | – | – | – | – | – | – | – | 100 | 100 | 100 | 100 | Pre-emergence action against ALOMY (herbicidal activity in percent) (ALOMY): 90%; Pre-emergence action against CYPES (herbicidal activity) (CYPES [17]): 80%; SETVI (Table B8, pre-emergence herbicidal activity) (SETVI [18]): 100%; Pre-emergence action against PHBPU (PHBPU [20]): 90%; Pre-emergence action against STEME (STEME [5]): 100%; Pre-emergence action against VIOTR (VIOTR [19]): 100%; Pre-emergence action against VERPE (VERPE [6]): 100%; Post-emergence action against CYPES (herbicidal action in percent) (CYPES [7]): 90%; Post-emergence action against ECHCG (herbicidal action in percent) (ECHCG [8]): 100%; Post-emergence action against SETVI (herbicidal action in percent) (SETVI [9]): 100%; Post-emergence action against ABUTH (herbicidal action in percent) (ABUTH [10]): 90%; Post-emergence action against AMARE (herbicidal action in percent) (AMARE [11]): 100%; Post-emergence action against MATIN (herbicidal action in percent) (MATIN [12]): 100%; Post-emergence action against PHBPU (PHBPU [13]): 90; Post-emergence action against STEME (STEME [14]): 100; Post-emergence action against VIOTR (VIOTR [15]): 100; Post-emergence action against VERPE (VERPE [16]): 80
CCCn1nnnc1NC(=O)c1ccc(C)c(C(C)=O)c1Cl [3-134] | – | – | – | – | – | – | – | – | – | – | – | – | – | – | – | – | 100 | 100 | 90 | 90 | Pre-emergence action against STEME (STEME [5]): 90%; Pre-emergence action against VIOTR (VIOTR [19]): 100%; Pre-emergence action against VERPE (VERPE [6]): 80%; Post-emergence action against CYPES (herbicidal action in percent) (CYPES [7]): 80%; Post-emergence action against ECHCG (herbicidal action in percent) (ECHCG [8]): 90%; Post-emergence action against ABUTH (herbicidal action in percent) (ABUTH [10]): 80%; Post-emergence action against AMARE (herbicidal action in percent) (AMARE [11]): 90%; Post-emergence action against MATIN (herbicidal action in percent) (MATIN [12]): 90%; Post-emergence action against PHBPU (PHBPU [13]): 90; Post-emergence action against STEME (STEME [14]): 100; Post-emergence action against VIOTR (VIOTR [15]): 90; Post-emergence action against VERPE (VERPE [16]): 90
